Results published in patent US20060148840A1, “Pyrrolodihydroisoquinolines as pde10 inhibitors” (Altana Pharma AG, priority 2003, published 2006).

First: CCOC(=O)c1c(-c2cccc(N(C)C)c2)c(C)n2c1-c1cc(OC)c(OC)cc1CC2(C)C [Example 4, 2-(3-Dimethylamino-phenyl)-8,9-dimethoxy-3,5,5-trimethyl-5,6-dihydro-pyrrolo[2,1-a]isoquinoline-1-carboxylic acid ethyl ester]
Second: COC(=O)c1c(-c2cc(C)c(O)c(C)c2)c(C)n2c1-c1cc(OC)c(OC)cc1CC2C (centres unmarked) [Example 65, 2-(4-Hydroxy-3,5-dimethyl-phenyl)-8,9-dimethoxy-3,5-dimethyl-5,6-dihydro-pyrrolo[2,1-a]isoquinoline-1-carboxylic acid methyl ester]
The melting point of the first is lower: 101 to 102 °C for the first, 177 to 179 °C for the second.

First: COc1cc2c(cc1OC)-c1c(C#N)c(-c3cccc4ccccc34)c(C)n1CC2 [Example 22, 8,9-Dimethoxy-3-methyl-2-naphthalen-1-yl-5,6-dihydro-pyrrolo[2,1-a]isoquinoline-1-carbonitrile]
Second: COc1cc2c(cc1OC)-c1c(C#N)c(-c3cn(S(C)(=O)=O)c4ccccc34)c(C)n1C(C)C2 (centres unmarked) [Example 40, 2-(1-Methanesulfonyl-1H-indol-3-yl)-8,9-dimethoxy-3,5-dimethyl-5,6-dihydro-pyrrolo[2,1-a]isoquinoline-1-carbonitrile]
The melting point of the first is higher: 226 to 229 °C for the first, 219 to 221 °C for the second.

Compared with `COC(=O)CCc1c(-c2ccncc2)c(C#N)c2n1CCc1cc(OC)c(OC)cc1-2` [Example 29, 3-(1-Cyano-8,9-dimethoxy-2-pyridin-4-yl-5,6-dihydro-pyrrolo[2,1-a]isoquinolin-3-yl)-propionic acid methyl ester], `COc1cc2c(cc1OC)-c1c(C#N)c(-c3ccnc(C)c3)c(C)n1C(C)C2` (centres unmarked) [Example 45, 8,9-Dimethoxy-3,5-dimethyl-2-(2-methyl-pyridin-4-yl)-5,6-dihydro-pyrrolo[2,1-a]isoquinoline-1-carbonitrile] is lower in melting point: 191 to 193 °C for the first, 187 to 189 °C for the second.

First: CCOc1cc2c(cc1OC)-c1c(C#N)c(-c3cc(C)c(O)c(C)c3)c(C)n1C(C)C2 (centres unmarked) [Example 53, 8-Ethoxy-2-(4-hydroxy-3,5-dimethyl-phenyl)-9-methoxy-3,5-dimethyl-5,6-dihydro-pyrrolo[2,1-a]isoquinoline-1-carbonitrile]
Second: COc1cc2c(cc1OC)-c1c(C)c(-c3cc(C)c(O)c(C)c3)c(C)n1CC2 [Example 68, 4-(8,9-Dimethoxy-1,3-dimethyl-5,6-dihydro-pyrrolo[2,1-a]isoquinolin-2-yl)-2,6-dimethyl-phenol]
The melting point of the first is higher: 232 to 234 °C for the first, 183 to 185 °C for the second.
